Our source for the % of inhibition, % of control and IC50 values is ChEMBL document CHEMBL5465560, “Selectivity Literature for EUbOPEN Chemogenomic Library” (2024).

Assay [1] deals with High affinity nerve growth factor receptor (Homo sapiens, UniProt P04629). Briefly: Selectivity interaction (Upstate Kinase Profiler service (Millipore)) EUB0000056c NTRK1. To be noted: at 1 µM.
The target of assay [2] is T1, Myotonin-protein kinase (Homo sapiens) (UniProt Q09013).
T1 sequence (whole entry): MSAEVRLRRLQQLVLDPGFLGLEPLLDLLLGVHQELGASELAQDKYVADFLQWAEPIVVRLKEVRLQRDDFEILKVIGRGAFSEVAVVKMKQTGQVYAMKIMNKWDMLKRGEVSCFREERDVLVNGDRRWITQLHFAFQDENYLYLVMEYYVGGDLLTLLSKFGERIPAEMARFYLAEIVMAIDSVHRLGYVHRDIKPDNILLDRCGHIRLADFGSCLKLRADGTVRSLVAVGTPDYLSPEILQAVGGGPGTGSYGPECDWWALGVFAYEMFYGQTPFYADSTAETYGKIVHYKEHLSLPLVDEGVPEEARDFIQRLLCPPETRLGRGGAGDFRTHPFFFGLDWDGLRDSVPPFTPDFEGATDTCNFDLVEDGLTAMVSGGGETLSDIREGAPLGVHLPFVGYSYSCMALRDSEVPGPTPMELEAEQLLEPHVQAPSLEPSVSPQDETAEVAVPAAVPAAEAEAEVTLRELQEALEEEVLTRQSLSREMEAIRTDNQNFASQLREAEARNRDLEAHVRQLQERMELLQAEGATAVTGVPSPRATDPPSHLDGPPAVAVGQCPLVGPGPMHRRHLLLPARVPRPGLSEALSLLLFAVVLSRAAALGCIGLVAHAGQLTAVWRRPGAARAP
Briefly: Selectivity interaction (Upstate Kinase Profiler service (Millipore)) EUB0000056c DMPK. The note with it: at 1 µM.

The test system of assay [3] is Epidermal growth factor receptor (Homo sapiens), P00533 [UNDEFINED MUTATION]. The note with it: at 10 µM.
The target of assay [4] is Serine/threonine-protein kinase 32C (Homo sapiens) (UniProt Q86UX6). To be noted: at 10 µM.
Sequence of Serine/threonine-protein kinase 32C (Homo sapiens) (Q86UX6 whole entry): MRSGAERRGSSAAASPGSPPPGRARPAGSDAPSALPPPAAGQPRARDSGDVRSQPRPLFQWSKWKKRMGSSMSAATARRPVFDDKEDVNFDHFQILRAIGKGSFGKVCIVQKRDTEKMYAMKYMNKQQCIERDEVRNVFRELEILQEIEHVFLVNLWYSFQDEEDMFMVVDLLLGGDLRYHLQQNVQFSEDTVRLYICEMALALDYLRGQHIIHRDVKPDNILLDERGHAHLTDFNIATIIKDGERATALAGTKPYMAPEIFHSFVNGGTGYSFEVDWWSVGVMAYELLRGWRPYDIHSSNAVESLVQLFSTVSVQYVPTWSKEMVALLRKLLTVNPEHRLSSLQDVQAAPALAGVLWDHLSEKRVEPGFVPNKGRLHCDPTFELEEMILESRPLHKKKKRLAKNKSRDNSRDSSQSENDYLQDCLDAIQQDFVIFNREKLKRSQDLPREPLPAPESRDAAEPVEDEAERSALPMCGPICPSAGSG
Assay [5] has as its target Serine/threonine-protein kinase pim-3 (Homo sapiens) (UniProt Q86V86). As to the kind of experiment: Selectivity interaction (KinomeScan (DiscoverX)) EUB0000655a PIM3. The note with it: at 10 µM.
In assay [6] the target is T2, Phosphorylase b kinase gamma catalytic chain, liver/testis isoform (Homo sapiens) (UniProt P15735).
T2 sequence (whole entry): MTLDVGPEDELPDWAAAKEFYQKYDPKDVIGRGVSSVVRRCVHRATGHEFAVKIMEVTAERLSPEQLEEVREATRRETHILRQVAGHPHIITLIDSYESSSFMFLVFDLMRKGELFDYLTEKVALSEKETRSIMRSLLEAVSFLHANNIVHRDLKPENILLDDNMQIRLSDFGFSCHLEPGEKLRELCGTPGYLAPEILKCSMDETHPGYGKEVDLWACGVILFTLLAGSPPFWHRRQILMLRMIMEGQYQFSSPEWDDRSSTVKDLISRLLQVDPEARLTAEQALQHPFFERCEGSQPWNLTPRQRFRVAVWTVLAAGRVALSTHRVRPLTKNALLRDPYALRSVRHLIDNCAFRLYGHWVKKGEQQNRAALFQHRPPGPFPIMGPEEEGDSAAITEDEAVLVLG
As to the kind of experiment: Selectivity interaction (KinomeScan (DiscoverX)) EUB0000045b PHKG2.

The target of assay [7] is Citron Rho-interacting kinase (Homo sapiens) (UniProt O14578). Briefly: Selectivity interaction (KinomeScan (DiscoverX)) EUB0000666a CIT. To be noted: at 10 µM.
Sequence of Citron Rho-interacting kinase (Homo sapiens) (O14578 whole entry): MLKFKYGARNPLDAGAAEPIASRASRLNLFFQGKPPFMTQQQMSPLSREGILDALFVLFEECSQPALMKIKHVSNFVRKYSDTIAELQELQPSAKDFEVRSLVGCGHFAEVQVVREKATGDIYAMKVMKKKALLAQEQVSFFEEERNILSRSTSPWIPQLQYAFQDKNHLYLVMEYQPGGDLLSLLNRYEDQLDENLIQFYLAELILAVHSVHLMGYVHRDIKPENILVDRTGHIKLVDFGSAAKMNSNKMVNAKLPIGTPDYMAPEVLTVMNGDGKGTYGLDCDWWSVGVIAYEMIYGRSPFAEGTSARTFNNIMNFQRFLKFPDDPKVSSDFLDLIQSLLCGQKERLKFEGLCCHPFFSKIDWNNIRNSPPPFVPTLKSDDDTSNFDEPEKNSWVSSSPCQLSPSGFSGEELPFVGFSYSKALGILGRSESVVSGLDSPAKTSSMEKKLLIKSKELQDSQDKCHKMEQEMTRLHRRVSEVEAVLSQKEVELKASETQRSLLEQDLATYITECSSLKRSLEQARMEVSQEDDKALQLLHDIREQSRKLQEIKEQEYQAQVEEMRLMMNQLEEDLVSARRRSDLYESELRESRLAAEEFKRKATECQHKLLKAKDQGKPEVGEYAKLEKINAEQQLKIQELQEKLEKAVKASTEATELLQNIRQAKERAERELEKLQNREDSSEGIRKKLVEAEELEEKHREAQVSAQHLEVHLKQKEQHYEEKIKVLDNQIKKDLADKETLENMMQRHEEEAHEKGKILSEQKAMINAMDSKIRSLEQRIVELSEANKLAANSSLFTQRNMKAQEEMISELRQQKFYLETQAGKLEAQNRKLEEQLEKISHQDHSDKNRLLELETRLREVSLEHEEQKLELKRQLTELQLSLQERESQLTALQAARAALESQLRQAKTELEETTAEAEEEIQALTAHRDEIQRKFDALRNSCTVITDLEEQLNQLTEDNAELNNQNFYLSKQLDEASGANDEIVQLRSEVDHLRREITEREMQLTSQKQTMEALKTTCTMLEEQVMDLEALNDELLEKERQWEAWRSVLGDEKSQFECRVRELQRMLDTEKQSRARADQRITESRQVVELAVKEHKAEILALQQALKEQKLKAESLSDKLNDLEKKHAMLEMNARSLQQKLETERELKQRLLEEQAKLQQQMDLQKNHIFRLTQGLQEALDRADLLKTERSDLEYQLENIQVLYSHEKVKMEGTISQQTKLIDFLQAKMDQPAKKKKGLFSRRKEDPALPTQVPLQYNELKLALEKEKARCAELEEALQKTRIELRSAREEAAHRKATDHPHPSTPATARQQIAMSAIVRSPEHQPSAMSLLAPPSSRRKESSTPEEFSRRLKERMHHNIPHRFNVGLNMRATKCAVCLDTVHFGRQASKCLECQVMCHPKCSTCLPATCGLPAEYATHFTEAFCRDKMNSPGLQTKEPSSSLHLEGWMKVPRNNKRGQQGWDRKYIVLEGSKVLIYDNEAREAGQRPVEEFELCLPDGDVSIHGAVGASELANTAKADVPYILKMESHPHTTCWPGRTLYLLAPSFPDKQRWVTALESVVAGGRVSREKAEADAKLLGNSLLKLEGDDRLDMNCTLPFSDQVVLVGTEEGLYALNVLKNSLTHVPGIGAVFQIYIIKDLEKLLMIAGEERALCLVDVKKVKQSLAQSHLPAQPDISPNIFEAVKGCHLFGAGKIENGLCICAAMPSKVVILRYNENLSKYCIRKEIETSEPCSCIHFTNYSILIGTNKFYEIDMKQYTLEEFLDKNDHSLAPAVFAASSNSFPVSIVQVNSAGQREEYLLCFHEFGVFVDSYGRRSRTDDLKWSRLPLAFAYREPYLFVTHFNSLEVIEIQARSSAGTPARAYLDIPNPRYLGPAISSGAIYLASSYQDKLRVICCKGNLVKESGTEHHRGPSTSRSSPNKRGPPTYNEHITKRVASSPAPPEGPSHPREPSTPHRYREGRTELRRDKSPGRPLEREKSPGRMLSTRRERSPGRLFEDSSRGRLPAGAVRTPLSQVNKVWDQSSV
The target in assay [8] is Tyrosine-protein kinase HCK (Homo sapiens) (UniProt P08631). As to the kind of experiment: Selectivity interaction (ActivX KiNativ screen (kinase selectivity in THP-1 cell lysates)) EUB0000639a HCK. Type of assay: subcellular. The note with it: lysate, at 0.2 µM.
Sequence of Tyrosine-protein kinase HCK (Homo sapiens) (P08631 2-526 limits assumed): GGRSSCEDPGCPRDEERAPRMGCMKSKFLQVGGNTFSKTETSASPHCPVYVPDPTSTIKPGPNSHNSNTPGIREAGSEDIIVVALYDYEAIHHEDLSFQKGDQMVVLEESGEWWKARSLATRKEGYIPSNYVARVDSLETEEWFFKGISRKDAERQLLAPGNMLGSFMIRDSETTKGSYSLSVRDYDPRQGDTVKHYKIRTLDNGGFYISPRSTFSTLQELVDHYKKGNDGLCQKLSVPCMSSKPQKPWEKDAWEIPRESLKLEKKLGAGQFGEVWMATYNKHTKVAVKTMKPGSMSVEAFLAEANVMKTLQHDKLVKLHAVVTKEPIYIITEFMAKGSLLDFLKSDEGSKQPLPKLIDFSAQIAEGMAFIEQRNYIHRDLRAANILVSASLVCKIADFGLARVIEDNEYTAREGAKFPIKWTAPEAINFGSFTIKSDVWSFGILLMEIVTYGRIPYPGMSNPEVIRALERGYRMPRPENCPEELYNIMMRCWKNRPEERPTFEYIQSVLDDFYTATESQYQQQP
Assay [9] addresses Serine/threonine-protein kinase PRP4 homolog (Homo sapiens) (UniProt Q13523). Briefly: Selectivity interaction (ActivX KiNativ screen (kinase selectivity in THP-1 cell lysates)) EUB0000639a PRPF4. Type of assay: subcellular. To be noted: lysate, at 1 µM.
Assay [10] concerns the target T3, Mitogen-activated protein kinase kinase kinase 3 (Homo sapiens) (UniProt Q99759).
T3 sequence (whole entry): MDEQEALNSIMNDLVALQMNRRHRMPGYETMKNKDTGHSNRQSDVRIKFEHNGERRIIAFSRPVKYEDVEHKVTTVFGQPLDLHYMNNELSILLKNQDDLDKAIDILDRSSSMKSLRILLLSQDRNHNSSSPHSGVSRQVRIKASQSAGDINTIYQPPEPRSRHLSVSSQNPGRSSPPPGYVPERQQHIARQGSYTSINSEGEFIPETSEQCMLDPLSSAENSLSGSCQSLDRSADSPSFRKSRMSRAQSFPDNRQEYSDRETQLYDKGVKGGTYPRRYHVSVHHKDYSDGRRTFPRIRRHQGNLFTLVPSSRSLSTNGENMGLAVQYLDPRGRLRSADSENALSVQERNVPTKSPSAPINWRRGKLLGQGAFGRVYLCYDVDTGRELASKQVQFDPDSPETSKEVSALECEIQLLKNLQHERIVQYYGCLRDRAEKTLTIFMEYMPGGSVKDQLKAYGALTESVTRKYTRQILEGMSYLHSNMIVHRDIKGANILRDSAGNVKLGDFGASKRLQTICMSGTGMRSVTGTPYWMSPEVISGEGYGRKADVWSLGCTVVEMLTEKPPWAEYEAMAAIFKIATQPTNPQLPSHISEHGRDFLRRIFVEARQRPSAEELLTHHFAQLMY
Briefly: Selectivity interaction (ActivX KiNativ screen (kinase selectivity in THP-1 cell lysates)) EUB0000639a MAP3K3. To be noted: lysate, at 0.01 µM. The assay is classed as subcellular.

A further assay concerns the target Histamine H1 receptor (Homo sapiens, UniProt P35367). As to the kind of experiment: Selectivity interaction (Histamine H1 receptor assay, human recombinant ) EUB0000877a HRH1.
In assay [11] the target is Dual specificity protein kinase CLK3 (Homo sapiens, UniProt P49761). The note with it: at 10 µM.
Sequence of Dual specificity protein kinase CLK3 (P49761 whole entry, looked up): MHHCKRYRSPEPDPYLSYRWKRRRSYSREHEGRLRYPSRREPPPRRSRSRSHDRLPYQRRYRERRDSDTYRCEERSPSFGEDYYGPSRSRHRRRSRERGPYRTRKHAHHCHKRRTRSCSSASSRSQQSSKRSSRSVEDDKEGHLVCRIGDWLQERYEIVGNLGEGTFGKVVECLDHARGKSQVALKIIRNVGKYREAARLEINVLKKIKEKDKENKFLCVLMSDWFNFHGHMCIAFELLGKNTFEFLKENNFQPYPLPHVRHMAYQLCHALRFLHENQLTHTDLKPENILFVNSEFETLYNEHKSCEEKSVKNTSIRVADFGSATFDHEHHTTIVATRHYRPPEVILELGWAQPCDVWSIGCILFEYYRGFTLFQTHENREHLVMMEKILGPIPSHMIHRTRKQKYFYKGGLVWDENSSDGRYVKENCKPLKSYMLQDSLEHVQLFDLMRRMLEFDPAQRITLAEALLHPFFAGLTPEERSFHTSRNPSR
Assay [12] deals with cAMP-dependent protein kinase catalytic subunit beta (Homo sapiens) (UniProt P22694). As to the kind of experiment: Selectivity interaction (KinomeScan (DiscoverX)) EUB0001619a PRKACB. To be noted: at 1 µM.
The target of assay [13] is Casein kinase II subunit alpha' (Homo sapiens) (UniProt P19784). As to the kind of experiment: Selectivity interaction (KinomeScan (DiscoverX)) EUB0001619a CSNK2A2. The note with it: at 1 µM.
Sequence of Casein kinase II subunit alpha' (Homo sapiens) (P19784 whole entry, looked up): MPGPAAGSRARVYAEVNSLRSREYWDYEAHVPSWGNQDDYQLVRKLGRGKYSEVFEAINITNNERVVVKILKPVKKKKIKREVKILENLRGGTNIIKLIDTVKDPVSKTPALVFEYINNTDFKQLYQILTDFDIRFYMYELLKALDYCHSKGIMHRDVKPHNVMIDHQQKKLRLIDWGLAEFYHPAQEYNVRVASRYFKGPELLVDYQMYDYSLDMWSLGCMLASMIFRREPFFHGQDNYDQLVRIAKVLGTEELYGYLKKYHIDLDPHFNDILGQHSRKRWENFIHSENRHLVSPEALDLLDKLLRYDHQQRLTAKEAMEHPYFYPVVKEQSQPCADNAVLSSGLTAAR

Each structure is given as a SMILES string. pIC50: −log10 of the molar value.

Broadly, the pIC50 is the negative decadic logarithm of the IC50, by convention in mol/L.

Sequence of High affinity nerve growth factor receptor (P04629 33-796 limits assumed): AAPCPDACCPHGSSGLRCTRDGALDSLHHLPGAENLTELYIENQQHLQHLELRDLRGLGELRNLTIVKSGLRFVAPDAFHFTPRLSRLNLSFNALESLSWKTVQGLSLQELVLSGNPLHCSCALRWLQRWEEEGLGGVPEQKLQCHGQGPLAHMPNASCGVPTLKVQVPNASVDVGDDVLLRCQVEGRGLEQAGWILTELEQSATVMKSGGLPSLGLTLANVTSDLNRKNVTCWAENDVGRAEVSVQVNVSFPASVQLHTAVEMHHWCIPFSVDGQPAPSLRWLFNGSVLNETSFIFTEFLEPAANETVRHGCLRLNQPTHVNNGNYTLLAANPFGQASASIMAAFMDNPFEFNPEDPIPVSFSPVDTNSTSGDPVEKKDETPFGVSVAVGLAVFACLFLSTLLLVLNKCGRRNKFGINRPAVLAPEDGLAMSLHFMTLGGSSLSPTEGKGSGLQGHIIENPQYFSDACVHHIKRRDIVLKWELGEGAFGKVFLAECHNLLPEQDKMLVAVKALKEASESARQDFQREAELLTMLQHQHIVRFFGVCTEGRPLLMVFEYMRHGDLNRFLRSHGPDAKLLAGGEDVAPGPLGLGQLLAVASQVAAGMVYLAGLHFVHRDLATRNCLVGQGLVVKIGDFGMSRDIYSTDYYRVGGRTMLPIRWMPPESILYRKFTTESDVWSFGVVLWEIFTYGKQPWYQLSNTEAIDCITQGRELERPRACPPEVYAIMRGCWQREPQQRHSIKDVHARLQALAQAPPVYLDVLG

With `Cc1ccc(-c2ccc3c(ccc4sc5c(c43)NC[C@@H](C)NC5=O)n2)cn1`, the % of inhibition in [1] is 3%; in [2], -8%.

The molecule `Cc1cc([C@@H](C)Nc2ccccc2C(=O)O)c2nc(N3CCOCC3)cc(=O)n2c1` [AZD-6482] came in with a % of control in assay [3] of 100%.

The molecule `CCN(CC)CCCCNc1ncc2cc(-c3cc(OC)cc(OC)c3)c(NC(=O)NC(C)(C)C)nc2n1` yielded a % of control in [4] of 100%.

For `CN(C)CCOc1ccc(-c2nc(-c3ccncc3)c(-c3ccc4c(c3)CC/C4=N\O)[nH]2)cc1`, the % of control in assay [5] is 88%.

As to `C=CC(=O)Nc1cc(-n2c(=O)ccc3cnc4ccc(-c5ccc(NS(C)(=O)=O)cc5)cc4c32)ccc1C`, the % of control was found to be 74% in [6] (at 1 µM) and 88% in assay [6] (at 10 µM).

In turn, `O=C(NOC[C@H](O)CO)c1ccc(F)c(F)c1Nc1ccc(I)cc1F` gave a % of control in [7] of 100%.

On to `CC[C@@H]1[C@H](F)C(=O)N[C@@H]1COc1nccc2cc(C(N)=O)c(OC)cc12` [ZIMLOVISERTIB], for which the % of inhibition is -32.6% in assay [8], 64.7% in assay [9] and -6.1% in [10].

Regarding `CCC(=O)N1CC[C@H](Nc2ncnc3c2CN(c2cnc(OC)c(C(F)(F)F)c2)CC3)C1` [LENIOLISIB], the pIC50 on Histamine H1 receptor was < 4.52.

As to `COCC(=O)NC/C=C/c1ccc2ncnc(Nc3ccc(Oc4ccc(C)nc4)c(C)c3)c2c1` [CP-724714], the % of control in assay [11] was found to be 100%.

As for `N#Cc1cccc(-c2c[nH]c3ncnc(N4CCOCC4)c23)c1`, the values for the % of control in [12] and in [13] were 84% and 45%, respectively.
